# Data as given in BindingDB's records for PubMed 3009454 (University of Wisconsin, 1986).
# Molecular target: T1, Aryl hydrocarbon receptor (Mus musculus, UniProt P30561)
# T1 sequence (P30561 whole entry): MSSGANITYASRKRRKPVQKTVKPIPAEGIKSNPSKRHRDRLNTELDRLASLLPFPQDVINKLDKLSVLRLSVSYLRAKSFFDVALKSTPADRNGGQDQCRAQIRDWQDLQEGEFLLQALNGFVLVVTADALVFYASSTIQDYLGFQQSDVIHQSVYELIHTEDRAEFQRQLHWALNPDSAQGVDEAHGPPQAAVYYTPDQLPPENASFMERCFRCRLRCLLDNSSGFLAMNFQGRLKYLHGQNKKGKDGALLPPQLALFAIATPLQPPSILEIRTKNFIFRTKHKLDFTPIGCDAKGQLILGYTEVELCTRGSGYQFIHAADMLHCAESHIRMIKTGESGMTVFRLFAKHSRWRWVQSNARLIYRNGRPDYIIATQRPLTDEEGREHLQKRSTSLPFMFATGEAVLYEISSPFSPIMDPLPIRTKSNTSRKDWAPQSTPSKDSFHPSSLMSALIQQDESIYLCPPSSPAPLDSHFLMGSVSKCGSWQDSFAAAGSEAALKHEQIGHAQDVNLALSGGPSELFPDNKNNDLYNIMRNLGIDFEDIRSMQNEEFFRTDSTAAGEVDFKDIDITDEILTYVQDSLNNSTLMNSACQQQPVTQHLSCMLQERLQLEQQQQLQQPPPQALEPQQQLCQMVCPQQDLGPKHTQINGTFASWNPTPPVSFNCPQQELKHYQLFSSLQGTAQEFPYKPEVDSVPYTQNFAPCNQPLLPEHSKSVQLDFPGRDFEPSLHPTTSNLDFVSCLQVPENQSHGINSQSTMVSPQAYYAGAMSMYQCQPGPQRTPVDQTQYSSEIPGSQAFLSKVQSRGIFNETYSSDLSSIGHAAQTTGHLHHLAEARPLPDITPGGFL
# Assay: Binding Assay
# Conditions: pH 7.5; 0 °C
# Procedure: The equilibrium dissocation constants, KD values for the photoaffinity ligands were determined by a competitive binding assay.
row,SMILES,Kd [nM]
1,"[N-]=[N+]=Nc1cc2c(cc1I)Oc1cc(Br)c(Br)cc1O2 [Photoaffinity ligand, 4]",0.76
2,"[N-]=[N+]=Nc1ccc(NCCCCCC(=O)NCc2c(Cl)c(Cl)cc3c2Oc2cc(Cl)c(Cl)cc2O3)c([N+](=O)[O-])c1 [Photoaffinity ligand, 8]",11
3,"[N-]=[N+]=Nc1ccc(C(=O)NCc2c(Cl)c(Cl)cc3c2Oc2cc(Cl)c(Cl)cc2O3)c(O)c1 [Photoaffinity ligand, 7]",113
4,"[N-]=[N+]=Nc1ccc(C(=O)NCc2c(Cl)c(Cl)cc3c2Oc2cc(Cl)c(Cl)cc2O3)cc1 [Photoaffinity ligand, 6]",8.1
5,"[N-]=[N+]=Nc1cc2c(cc1Cl)Oc1cc(Cl)c(Cl)cc1O2 [Photoaffinity ligand, 3]",0.49
6,"[N-]=[N+]=Nc1cc(Cl)cc2c1Oc1cc(Cl)c(Cl)cc1O2 [Photoaffinity ligand, 1]",0.44
7,"[N-]=[N+]=Nc1c(I)c(Cl)cc2c1Oc1cc(Cl)c(Cl)cc1O2 [Photoaffinity ligand, 2]",2.1
8,"[N-]=[N+]=Nc1ccc([N+](=O)[O-])c(C(=O)NCc2c(Cl)c(Cl)cc3c2Oc2cc(Cl)c(Cl)cc2O3)c1 [Photoaffinity ligand, 5]",13
